Measurements reported in patent US7879914B2, “Methods for treating viral infections using polyamine analogs” (Pathlogica LLC, priority 2005, dated 2011).
Entries after “also recorded” stand apart in the source; their conditions may differ. Read-outs that look alike come from different tables or passages of the source.

How the values were obtained:
[1] = system: CD14/CD16+ blood macrophages from HIV positive patients; assay: Susceptibility assay: killing of CD14/CD16+ blood macrophages from HIV patients; format: cell-based; conditions: for EC50: Homo sapiens, Macrophage, advanced HIV disease, read-out: Mean ED50
Protocol: The following procedures/protocols were used in some of the examples that follow. All steps were performed in a biological safety cabinet using Universal Precautions for handling human blood samples and standard aseptic techniques.
Blood was drawn in heparinized tubes (green top Vacutainer tubes from Becton-Dickson) and Percol gradient separated into peripheral blood mononuclear cells (PBMCs), according to the following procedure. Aliquots of no more than 25 mL whole blood were transferred into clean, sterile, prelabeled 50 mL conical tubes. Using a sterile 25 mL pipet, equal volume of PBS (Mg^+2/Ca^+2 free) was added to the whole blood and the tubes were inverted 2 or 3 times. […] (For example: 10 mL whole blood +10 mL PBS.)
The diluted blood was slowly and carefully layered over the sterile Percol in amounts of 15-20 mL by holding the pipet at a 45 degree angle, relative to the Percol tube, and slowly dripping the diluted blood down the side of the tube. The resulting mixture was centrifuged at 2100 RPM for 30 minutes at 25° C. The buffy coat (i.e., the white layer between the yellow plasma on top and clear Percol solution below) so obtained was then slowly aspirated, taking care not to aspirate the Percol. The buffy coat was resuspended in sterile PBS (Mg^+2/Ca^+2 free) and the volume was brought up to 50 mL. The mixture was gently mixed by slowly pipetting up and down 3 times and the cell suspension was centrifuged at 1500 RPM for 10 minutes at 25° C. The supernatant was discarded and the bottom of the tube gently tapped to dislodge the cell pellet.
The PBMC for the susceptibility assays was prepared in accordance with the following procedures. A cell culture medium was prepared by mixing RPMI+10% FBS+1% sodium pyruvate and filter sterilized using a filter unit with 0.22 micron pore size. The cell pellet was then resuspended in 3 ml of the cell culture medium. The suspension was gently mixed by slowly pipetting up and down 3 times. The cells were counted using a hemacytometer and the cell density was adjusted to 1×10^6 cells/mL in the cell culture medium, followed by mixing by slowly pipetting up and down 3 times. The cells were incubated in a 50 mL sterile polypropylene tube, at 37° C. and 5% CO2 for 1-2 days. The cap was loosened and the tubes were tipped to 30-45 degrees relative to the tray surface. A styrofoam tube rack was used to hold the tubes.
The MGBG drug was prepared in accordance with the following procedures. A primary stock of MGBG was prepared by weighing out enough MGBG to make a 1 molar (M) solution and dissolved in sterile PBS (Mg^+2/Ca^+2 free). The solution was vortexed until all of the MGBG had dissolved. A secondary stock (0.01 M) was prepared from a 1/100 dilution of the primary stock and filter sterilized by passing the solution through a 0.22 micron filter. A working stock (0.001 M or 1,000 microMolar) was prepared from a 1/10 dilution of the secondary stock. The CG47 drug was prepared by an identical procedure.
Drug doses for the susceptibility assays were prepared in accordance with the following procedures. Drug dilutions were prepared at 10-fold higher concentrations than the final desired concentrations. For example a 100 microMolar drug solution was made for a desired final concentration of 10 microMolar. The drugs were diluted an additional 1/10 upon addition to the cell suspension (e.g., 0.1 mL drug +0.9 mL cell suspension). The drug doses for the susceptibility assays were prepared right before use in cell culture media.
Susceptibility assays were conducted in accordance with the following procedures. The MGBG drug as added 1-2 days after PBMC was separated from whole blood. […]

[2] = system: HIV DNA associated with CD14 cells; assay: HIV DNA in isolated CD14 cells after ex vivo drug exposure, quantitative DNA PCR; format: cell-based
Protocol: Blood from patients with advanced HIV disease was Percol gradient separated into peripheral blood mononuclear cells (PBMCs) and 5 million cells from each specimen were exposed to a 1 μM concentration of MGBG or control saline for five days. […] After the five day incubation, CD14 immunomagnetic separation with a Miltenyi separation system was performed. Separated CD14 cells from treated and untreated control specimens were evaluated for the level of HIV DNA in each specimen. C-jun, single copy DNA controls were utilized in each specimen to provide the HIV DNA/genomic equivalent values as determined by quantitative DNA PCR analysis as described in Mack, K. D., et al. JAIDS (2003) 33: 308-20. […]
Blood from three patients with advanced HIV disease was Percol gradient separated into peripheral blood mononuclear cells (PBMC's) and 5 million cells from each specimen were exposed to a 10 micromolar concentration of the polyamine analog CG47 or control saline for 5 days. […] Separated CD14 cells from treated and untreated control specimens were evaluated for the level of HIV DNA in each specimen. C-jun, single copy DNA controls were utilized in each specimen to provide the HIV DNA/genomic equivalent values as determined by quantitative DNA PCR analysis as described in Mack et al. (JAIDS). […]

[3] = system: CD16+ monocytes; assay: Killing of CD16+ monocytes by polyamine biosynthesis inhibitors (Example 6); format: cell-based, human; conditions: for comparison of effectiveness of both PBIs: FIG. 6, 10 μM, five days
Protocol: Mononuclear cells were isolated from individuals with HIV infection, uninfected individuals or a patient with ALS and incubated in the absence or presence of increasing concentrations of the PBIs, MGBG (PA-001) and CG47. After five days in culture under non-adherent conditions cells were isolated stained with antibodies to CD14+ and CD16+ and counted by flow cytometry using a FACSCAN (BD-biosciences). The fraction of CD14+ monocytes that expressed CD16 was determined and compared to levels seen in the absence of drug.
Those samples that were relatively resistant to PBIs required 100 μM or more of drug to achieve similar levels of killing. […] Overall 65% to 80% of samples from individuals with HAND were sensitive (>70% killing with 10 μM PBI or less) to PBIs.
The overall results with mononuclear cells from HIV infected individuals, ALS patients, and healthy controls are shown in FIG. 6. […] The number of mononuclear cell samples evaluated in each category were as follows: ALS with PA-001 (MGBG)=6, and with CG47=28. Drug resistant HIV with PA-001=22, and with CG47=48. HAD with PA-001=9, and with CG47=5. Healthy with PA-001=24, and with CG47=15.

Row | Compound | killing of the CD14/CD16 blood macrophage population ([1]; 10 micromolar, 5 days, PBMCs of three patients with advanced HIV disease) [%] | sensitivity of CD14/CD16+ macrophages from the HIV patient ([1]; FIG. 4, ex vivo) | EC50 ([1]; CG47, mean of 13 patients) [nM] | reduction in HIV DNA associated with CD14 cells (average) ([2]; 10 micromolar, 5 days, three blood specimens) [%] | changes in lymphocyte levels ([3]; 10 μM or less) | comparison of effectiveness of both PBIs [3] | killing of CD14/16+ cells that contain HIV DNA ([1]; 1 μM) | killing of the CD14/CD16 blood macrophage population ([1]; 1 μM, five days, PBMCs of patients with advanced HIV disease) [%] | killing of HIV infected macrophages, dose dependence ([1]; HIV positive patients, FIG. 1) | killing of HIV-infected macrophages from HAD patients ([1]; HIV-associated dementia (HAD) patients, compared with HIV positive) | EC50 ([1]; MGBG, mean of 10 patients) [nM] | reduction in HIV DNA associated with CD14 cells (average) ([2]; 1 μM, five days) [%]
1 | CCNCCCNC/C=C\CNCCCNCC.Cl.Cl.Cl.Cl [CG47, N,N′-bis(3-ethylaminopropyl)-cis-but-2-ene-1,4-diamine tetrahydrochloride] | > 80 | extremely sensitive | 3500 | > 90 | little or no changes | approximately equivalently effective |  |  |  |  |  | 
2 | CC(/C=N/NC(=N)N)=N\NC(=N)N [MGBG] |  |  |  |  |  | approximately equivalently effective | Complete killing; also recorded: near quantitative | > 80 | dose-dependent | nearly as effective | 465 | > 99
